Measured values from publication PMC8901636, “Preclinical studies of Flonoltinib Maleate, a novel JAK2/FLT3 inhibitor, in treatment of JAK2^V617F-induced myeloproliferative neoplasms” (Blood Cancer Journal, 2022).
Like-named read-outs stand apart in the source and are kept apart here.

Assays:
[1] = PK and tissue distribution after single oral administration in Ba/F3-EPOR-JAK2^V617F tumor-bearing mice; format: in vivo; conditions: for Kp: spleen and plasma, po
[2] = test system: Ba/F3-EPOR-JAK2^V617F cells; test: PD study after repeated administration in Ba/F3-EPOR-JAK2^V617F tumor-bearing mice; format: in vivo
Procedure: For Ba/F3-EPOR-JAK2^V617F driven malignant model after repeated administration, tumor-bearing mice were randomly divided into 8 groups on the 10th day. Mice were sacrificed at 0, 0.25, 0.5, 1, 4, 8, 12, and 24 hours after the last oral administration, and tissue samples were harvested to determine the distribution of FM and PK parameters by UFLC-MS/MS. For PD studies, we weighed the spleen, and analyzed the ratio of GFP^+ in the spleen and PB by flow cytometry, and test the downstream pathway protein p-STAT5 (Y694, Cat. No. Ab32364) via Western Blot.
With the decrease of drug concentration, the level of p-STAT5 increased to a certain extent, but 12 hours after administration, the level of p-STAT5 still decreased (Fig. 5C). […] 71 ± 7. 91%, respectively. In addition, the weight of spleen was 267.2 ± 56.8 mg in the untreated group and 167.5 ± 52.9 mg in the repeated administration groups (12 hours after the last administration) (Fig. 5D and Fig. S4E).

Bioavailability [3] = conditions: rat, in vivo; rats; data not shown
Bioavailability [4] = conditions: dog, in vivo; dogs; data not shown
JAK1 = JAK1 (Homo sapiens, UniProt P23458); test: In vitro kinase assay; conditions: read-out: JAK1 Enzyme IC50
JAK3 = JAK3 (Homo sapiens, UniProt P52333); test: In vitro kinase assay
TYK2 = TYK2 (Homo sapiens, UniProt P29597); test: In vitro kinase assay
[5] = test system: Ba/F3-EPOR-JAK2^V617F cells; test: Ba/F3-EPOR-JAK2^V617F malignancy mouse model; conditions: for spleen suppression rate: 16 days; for median survival time: vehicle 19 days
[6] = BALB/c nude, mouse, spleen, oral, 30 mg/kg, single, read-out: FM concentration, Spleen
[7] = BALB/c nude, mouse, stomach, oral, 30 mg/kg, single, read-out: FM concentration, Stomach
[8] = BALB/c nude, mouse, Plasma, single oral 30 mg/kg
[9] = BALB/c nude, mouse, spleen, single oral 30 mg/kg
[10] = before the last administration, 30 mg/kg repeated

Chain of JAK1 (P23458 whole entry): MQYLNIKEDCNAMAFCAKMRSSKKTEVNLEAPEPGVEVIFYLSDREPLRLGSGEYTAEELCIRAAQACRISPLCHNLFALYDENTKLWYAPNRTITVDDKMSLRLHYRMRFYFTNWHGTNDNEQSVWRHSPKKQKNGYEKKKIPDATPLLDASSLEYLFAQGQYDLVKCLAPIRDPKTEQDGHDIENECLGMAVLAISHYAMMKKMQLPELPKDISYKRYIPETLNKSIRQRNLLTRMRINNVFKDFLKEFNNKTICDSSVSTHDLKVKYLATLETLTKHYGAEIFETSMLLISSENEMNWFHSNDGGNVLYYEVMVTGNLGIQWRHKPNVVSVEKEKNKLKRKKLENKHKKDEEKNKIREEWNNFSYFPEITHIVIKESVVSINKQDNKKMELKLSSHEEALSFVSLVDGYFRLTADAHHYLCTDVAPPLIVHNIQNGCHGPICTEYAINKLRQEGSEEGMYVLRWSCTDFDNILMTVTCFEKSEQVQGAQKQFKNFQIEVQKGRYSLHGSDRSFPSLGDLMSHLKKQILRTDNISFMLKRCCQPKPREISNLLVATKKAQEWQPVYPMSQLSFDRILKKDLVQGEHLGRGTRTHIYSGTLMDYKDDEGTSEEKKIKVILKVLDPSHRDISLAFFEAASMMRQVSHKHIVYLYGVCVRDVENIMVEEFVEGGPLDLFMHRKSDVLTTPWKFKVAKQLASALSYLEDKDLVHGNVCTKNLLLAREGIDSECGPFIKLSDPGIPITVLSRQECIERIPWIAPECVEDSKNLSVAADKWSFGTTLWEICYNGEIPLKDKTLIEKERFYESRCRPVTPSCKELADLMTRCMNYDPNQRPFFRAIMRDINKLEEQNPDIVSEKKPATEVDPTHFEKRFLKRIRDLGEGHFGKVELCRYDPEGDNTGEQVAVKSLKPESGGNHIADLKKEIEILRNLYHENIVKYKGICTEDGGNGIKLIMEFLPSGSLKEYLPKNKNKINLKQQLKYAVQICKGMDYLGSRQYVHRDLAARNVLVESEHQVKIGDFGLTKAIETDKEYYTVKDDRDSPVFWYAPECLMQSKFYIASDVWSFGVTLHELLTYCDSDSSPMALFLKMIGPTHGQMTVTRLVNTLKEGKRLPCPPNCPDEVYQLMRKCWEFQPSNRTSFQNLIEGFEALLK
Chain of JAK3 (P52333 whole entry): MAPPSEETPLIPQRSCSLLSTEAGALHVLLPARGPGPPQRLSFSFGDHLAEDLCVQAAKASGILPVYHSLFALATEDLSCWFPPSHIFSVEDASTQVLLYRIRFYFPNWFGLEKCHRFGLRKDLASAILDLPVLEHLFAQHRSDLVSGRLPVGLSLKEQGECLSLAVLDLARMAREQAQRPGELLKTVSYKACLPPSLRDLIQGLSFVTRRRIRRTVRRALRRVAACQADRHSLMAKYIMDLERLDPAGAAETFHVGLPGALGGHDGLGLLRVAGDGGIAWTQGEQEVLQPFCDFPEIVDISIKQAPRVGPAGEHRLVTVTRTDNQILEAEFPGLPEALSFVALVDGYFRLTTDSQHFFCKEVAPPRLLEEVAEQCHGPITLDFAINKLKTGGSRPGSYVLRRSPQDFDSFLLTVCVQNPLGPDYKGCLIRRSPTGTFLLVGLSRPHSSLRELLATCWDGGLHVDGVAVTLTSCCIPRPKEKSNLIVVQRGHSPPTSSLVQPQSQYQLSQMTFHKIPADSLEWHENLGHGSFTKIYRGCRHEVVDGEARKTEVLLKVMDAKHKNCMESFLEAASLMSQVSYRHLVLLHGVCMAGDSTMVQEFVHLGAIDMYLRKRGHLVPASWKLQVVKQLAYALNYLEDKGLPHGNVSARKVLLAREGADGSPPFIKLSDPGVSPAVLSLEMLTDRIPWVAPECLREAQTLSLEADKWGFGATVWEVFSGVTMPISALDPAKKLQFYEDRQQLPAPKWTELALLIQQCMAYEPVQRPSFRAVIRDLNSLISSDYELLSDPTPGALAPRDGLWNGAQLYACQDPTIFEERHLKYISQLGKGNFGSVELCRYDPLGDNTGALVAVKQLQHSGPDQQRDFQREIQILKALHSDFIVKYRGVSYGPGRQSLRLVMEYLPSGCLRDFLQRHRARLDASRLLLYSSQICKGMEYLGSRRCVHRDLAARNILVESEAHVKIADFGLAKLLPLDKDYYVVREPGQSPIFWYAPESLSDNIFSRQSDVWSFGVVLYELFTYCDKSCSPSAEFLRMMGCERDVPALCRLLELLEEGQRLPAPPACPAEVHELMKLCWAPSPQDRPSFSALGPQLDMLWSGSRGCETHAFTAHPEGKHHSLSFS
Chain of TYK2 (P29597 whole entry): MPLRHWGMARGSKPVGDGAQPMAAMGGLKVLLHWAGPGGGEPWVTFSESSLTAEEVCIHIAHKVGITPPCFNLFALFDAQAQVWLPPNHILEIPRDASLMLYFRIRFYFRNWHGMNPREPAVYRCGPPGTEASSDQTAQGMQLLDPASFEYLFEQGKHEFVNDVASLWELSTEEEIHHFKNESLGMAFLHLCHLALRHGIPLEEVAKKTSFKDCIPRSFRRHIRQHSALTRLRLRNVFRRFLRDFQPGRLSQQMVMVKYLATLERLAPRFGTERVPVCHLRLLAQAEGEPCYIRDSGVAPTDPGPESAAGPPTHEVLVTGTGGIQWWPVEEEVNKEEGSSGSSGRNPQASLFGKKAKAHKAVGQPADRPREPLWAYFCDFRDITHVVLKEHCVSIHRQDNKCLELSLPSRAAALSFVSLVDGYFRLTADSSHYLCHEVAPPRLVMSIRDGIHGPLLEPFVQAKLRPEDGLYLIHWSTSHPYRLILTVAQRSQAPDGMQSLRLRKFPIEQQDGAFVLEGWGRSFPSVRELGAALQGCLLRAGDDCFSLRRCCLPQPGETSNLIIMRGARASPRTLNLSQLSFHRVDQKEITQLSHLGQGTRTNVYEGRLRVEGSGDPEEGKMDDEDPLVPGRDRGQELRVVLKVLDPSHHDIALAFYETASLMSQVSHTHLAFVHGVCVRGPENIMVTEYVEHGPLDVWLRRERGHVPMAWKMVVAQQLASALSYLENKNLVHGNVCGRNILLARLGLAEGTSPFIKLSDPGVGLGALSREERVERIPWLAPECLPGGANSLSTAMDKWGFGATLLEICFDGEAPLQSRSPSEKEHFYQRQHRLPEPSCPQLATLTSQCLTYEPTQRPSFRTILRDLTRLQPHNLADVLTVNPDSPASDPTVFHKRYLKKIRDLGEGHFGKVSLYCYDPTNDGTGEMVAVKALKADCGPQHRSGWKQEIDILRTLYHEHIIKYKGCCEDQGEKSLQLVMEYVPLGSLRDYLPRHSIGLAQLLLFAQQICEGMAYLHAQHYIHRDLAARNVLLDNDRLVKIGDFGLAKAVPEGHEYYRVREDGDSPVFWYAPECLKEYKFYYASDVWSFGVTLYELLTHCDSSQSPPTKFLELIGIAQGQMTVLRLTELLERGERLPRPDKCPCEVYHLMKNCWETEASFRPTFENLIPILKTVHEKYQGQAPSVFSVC

## Cc1cnc(Nc2ccc(N3CCC(N(C)CCO)CC3)c(F)c2)nc1-c1cnn(C(C)C)c1 [FM, 2-((1-(2-fluoro-4-((4-(1-isopropyl-1H-pyrazol-4-yl)-5-methylpyrimidin-2-yl)amino)phenyl)piperidin-4-yl)(methyl)amino)ethan-1-ol]
[1]; BALB/c nude, mouse, plasma, oral, 30 mg/kg, single, 8 h, read-out: FM concentration, Plasma
  concentration at 8 h: 59.9 ± 50 ng/mL
[1]; BALB/c nude, mouse, plasma, oral, 30 mg/kg, single, 12 h, read-out: FM concentration, Plasma
  concentration at 12 h: 61.4 ± 64.3 ng/mL
[1]; BALB/c nude, mouse, 30 mg/kg, AUC(0-24h) of spleen higher than that of plasma, single oral 30 mg/kg
  Kp: 15.3
[1]; BALB/c nude, mouse, 30 mg/kg, single oral 30 mg/kg, read-out: Cmax of spleen higher than that of plasma
  Kp: 11.7
[1]; BALB/c nude, mouse, spleen, oral, 30 mg/kg, single, 0.25 h, read-out: FM concentration, Spleen
  concentration at 0.25 h: 5630 ± 710 ng/g
[1]; [6]
  concentration at 0.5 h: 10400 ± 2660 ng/g
  concentration at 2 h: 8530 ± 1510 ng/g
  concentration at 4 h: 3810 ± 1880 ng/g
[1]; BALB/c nude, mouse, spleen, oral, 30 mg/kg, single, 1 h, read-out: FM concentration, Spleen
  concentration at 1 h: 9930 ± 3970 ng/g
[1]; BALB/c nude, mouse, spleen, oral, 30 mg/kg, single, 8 h, read-out: FM concentration, Spleen
  concentration at 8 h: 1410 ± 968 ng/g
[1]; BALB/c nude, mouse, spleen, oral, 30 mg/kg, single, 12 h, read-out: FM concentration, Spleen
  concentration at 12 h: 358 ± 228 ng/g
[1]; BALB/c nude, mouse, spleen, oral, 30 mg/kg, single, 24 h, read-out: FM concentration, Spleen
  concentration at 24 h: 32.6 ± 13.3 ng/g
[1]; BALB/c nude, mouse, spleen, 8 h after single oral 30 mg/kg, converted, read-out: drug concentration in the spleen
  concentration at 8 h: ~2420 nM
[1]; BALB/c nude, mouse, spleen, 12 h after single oral 30 mg/kg, converted, read-out: concentration of FM in spleen
  concentration at 12 h: ~614 nM
[1]; [7]
  concentration at 0.5 h: 30300 ± 18400 ng/g
  concentration at 2 h: 30500 ± 29000 ng/g
  concentration at 4 h: 17700 ± 10900 ng/g
[1]; BALB/c nude, mouse, stomach, oral, 30 mg/kg, single, 8 h, read-out: FM concentration, Stomach
  concentration at 8 h: 6840 ± 10500 ng/g
[1]; [8]
  AUC(0-t): 2990 ± 558 ng·h/mL
  Cmax: 1030 ± 174 ng/mL
  half-life: 2.31 ± 0.79 h
[1]; [9]
  Cmax: 12000 ± 3470 ng/g
  half-life: 2.71 ± 0.51 h
[1]; Plasma, single oral 30 mg/kg
  Cl: 168.7 ± 36.2 mL/min/kg
  Vdss: 32.84 ± 10.12 L/kg
[2]; 12 hours after the 17th administration, 30 mg/kg
  GFP^+ tumor cells in PB: 11.77 ± 5.5%
[2]; [10]
  GFP^+ tumor cells in PB: 19.75 ± 12.93%
  GFP^+ tumor cells in spleen: 17.12 ± 8.15%
[2]; repeated administration, 12 hours after the last administration, untreated 267.2 ± 56.8 mg
  weight of spleen: 167.5 ± 52.9 mg
[2]; spleen, 8 hours after administration, 30 mg/kg repeated
  p-STAT5 level down-regulated by: 43.80 ± 1.59%
Bioavailability [3]
  bioavailability: ~60%
Bioavailability [4]
  bioavailability: ~60%
JAK1
  IC50: 690 nM
JAK3
  IC50: 557 nM
TYK2
  IC50: 65 nM
[5]; 15 mg/kg bid p.o.
  spleen suppression rate: -35.67%
  median survival time: 22 days
[5]; 30 mg/kg bid p.o.
  spleen suppression rate: -79.79%
  median survival time: 25 days
[5]; 45 mg/kg bid p.o.
  spleen suppression rate: -101.08%
  median survival time: 25 days
[5]; data not shown
  visceral toxicity, tissues of treated mice: did not cause obvious visceral toxicity
